Data on 42 compounds can be found in US5164381A, “Pharmacologically active 1,5-diaryl-3-substituted pyrazoles and method for synthesizing the same” (Ortho Pharmaceutical Corporation, priority 1991, dated 1992).

The first assay deals with Lewis strain laboratory rats. The assay can be described thus: In vivo alleviation of inflammation: polyarthritis (adjuvant, Mycobacterium butyricum) in rats, inhibition of paw volume increase. Particulars: Rattus norvegicus, po, rat; read-out: ED50 (effective dose to obtain a 50% inhibition of inflammation). How it is done: Polyarthritis was induced in Lewis strain laboratory rats (weight=about 200 grams) by injection of a suspension of Mycobacterium butyricum in mineral oil into the subplantar tissue of the mammal's hind paws. On day 10 after the injection, the rats were assigned to groups, and paw volumes and body weights were recorded. Paw volumes of the contralateral, uninjected hind paw were determined by mercury plethylsmography. Per oral (p.o.) dosing began and continued for five consecutive days thereafter. On day 14 after the initial injection, approximately four hours after the final dose was administered, paw volumes and body weights were recorded and quantitated.
Anti-inflammatory activity of the substituted pyrazole compounds is expressed as the percent inhibition of paw volume increase.
`COc1ccc(-n2nc(CCCO)cc2-c2ccc(C)cc2)cc1` [Compound 55, 3-(3-hydroxypropyl)-1-(4-methoxyphenyl)-5-(4-tolyl)pyrazole]: the ED50 was 3.9 mg/kg. The same measure, in the same setting: then `COc1ccc(-n2nc(CCCO)cc2-c2ccc(C(F)(F)F)cc2)cc1` [Compound 56, 5-(4-trifluoromethylphenyl)-3-(3-hydroxypropyl)-1-(4-methoxyphenyl) pyrazole], with 3 mg/kg.

Staying with this assay, now noted: po, 336 h; 9 mpk p.o., rat; read-out: % INH. p.o. (percentage inhibition of pad swelling).
In the case of `COc1ccc(-n2nc(CCCN(O)S(C)(=O)=O)cc2-c2ccc(Cl)cc2)cc1` [Compound 156], the inhibition in vivo at 9 mg/kg was 34%.

Staying with this assay, now noted: po, 336 h; 10 mpk p.o., rat; read-out: % INH. p.o. (percentage inhibition of pad swelling).
On to `CCCCCCCCN(O)C(=O)CCc1cc(-c2ccc(Cl)cc2)n(-c2ccc(OC)cc2)n1` [Compound 146], for which the inhibition in vivo at 10 mg/kg came to 29%. Take `COc1ccc(-c2cc(CCC(=O)N(C)O)nn2-c2ccc(OC)cc2)cc1` [Compound 113]: the inhibition in vivo at 10 mg/kg is 34%. Consider `CCOC(=O)C(C)N(O)C(=O)CCc1cc(-c2ccc(Cl)cc2)n(-c2ccc(OC)cc2)n1` (stereo not drawn) [Compound 144], for which the inhibition in vivo at 10 mg/kg turned out to be 55%. The same measure, in the same setting: under `CCCCCCCC(=O)N(O)CCCc1cc(-c2ccc(Cl)cc2)n(-c2ccc(OC)cc2)n1` [Compound 154] stands 11%; under `COc1ccc(-n2nc(CCC(O)C(C)(C)C)cc2-c2ccc(Cl)cc2)cc1` (stereo not drawn) [Compound 179], 36%. Take `COc1ccc(-n2nc(CCC(=O)N(C)O)cc2-c2cccc(C)c2)cc1` [Compound 115]: the inhibition in vivo at 10 mg/kg worked out at 35%. Still for that read-out and setting: under `CCN(CC)C(=O)CCC(=O)ON(C)C(=O)CCc1cc(-c2ccc(Cl)cc2)n(-c2ccc(OC)cc2)n1` [Compound 137] stands 54%; under `COc1ccc(-n2nc(CCCN(O)C(=O)C(C)(C)C)cc2-c2ccc(Cl)cc2)cc1` [Compound 153], 49%.

The assay is the same for the next values; noted with them: po, 336 h; 15 mpk p.o., rat; read-out: % INH. p.o. (percentage inhibition of pad swelling).
For the compound `COc1ccc(-n2nc(CCC(=N)N(C)O)cc2-c2ccc(Cl)cc2)cc1` [Compound 185, N-Hydroxy-N-methyl-2-[5-(4-chlorophenyl)-1-(4-methoxyphenyl)-3-pyrazolyl]ethylcarboximidamide Monohydrate], the inhibition in vivo at 15 mg/kg came out at 5%. Same read-out and setting: under `CCOC(=O)C(CS)NC(=O)CCc1cc(-c2ccc(Cl)cc2)n(-c2ccc(OC)cc2)n1` (stereo not drawn) [Compound 100] stands 58%; under `COc1ccc(-n2nc(CCC(=O)O)c(Cl)c2-c2ccc(Cl)cc2)cc1` [Compound 182], 71%.

For `COc1ccc(-n2nc(CCC(=O)N(OC(C)=O)C(C)=O)cc2-c2ccc(Cl)cc2)cc1` [Compound 172, N-Acetyl-N-acetoxy-[5-(4-chlorophenyl)-1-(4-methoxyphenyl)-3-pyrazolyl]-propanamide], the inhibition in vivo at 15 mg/kg stood at 83%.

In the case of `CCOC(=O)CNC(=O)CCc1cc(-c2ccc(Cl)cc2)n(-c2ccc(OC)cc2)n1` [Compound 87], the inhibition in vivo at 15 mg/kg was 22%. As to `COc1ccc(-n2nc(CCC(=O)N(C)O)cc2-c2ccccc2)cc1` [Compound 114], the inhibition in vivo at 15 mg/kg is 5%.

For the compound `COc1ccc(-n2nc(CCC(=O)N(C)O)c(Cl)c2-c2ccc(Cl)cc2)cc1` [Compound 149], the inhibition in vivo at 15 mg/kg turned out to be 68%. For `CCOc1ccc(-n2nc(CCC(=O)N(C)O)cc2-c2ccc(Cl)cc2)cc1` [Compound 76], the inhibition in vivo at 15 mg/kg is 43%.

Regarding `COc1ccc(-n2nc(CCC(=O)NO)c(Br)c2-c2ccc(Cl)cc2)cc1` [Compound 150], the inhibition in vivo at 15 mg/kg was determined as 70%. Still for that read-out and setting: then `CCC(O)CCc1cc(-c2ccc(Cl)cc2)n(-c2ccc(OC)cc2)n1` (stereo not drawn) [Compound 177], with 16%; and `COc1ccc(-n2nc(CCC(=O)NCC(=O)NO)cc2-c2ccc(Cl)cc2)cc1` [Compound 88], with 36%; and `COc1ccc(-n2nc(CCC(=O)c3ccccc3)cc2-c2ccc(Cl)cc2)cc1` [Compound 181], with 30%.

`COc1ccc(-n2nc(CCNC(=O)C(=O)N(C)O)cc2-c2ccc(Cl)cc2)cc1` [Compound 163]: the inhibition in vivo at 15 mg/kg stood at 28%.

Consider `COc1ccc(-n2nc(CCCNC(=O)C(=O)NO)cc2-c2ccc(Cl)cc2)cc1` [Compound 164], for which the inhibition in vivo at 15 mg/kg came to 13%. Same read-out and setting: under `COc1ccc(-n2nc(CCC(=O)N(C)O)cc2-c2ccc(C)cc2)cc1` [Compound 111] stands 75%. On the same count and under the same terms, then `Nc1ccc(-n2nc(CCCO)cc2-c2ccc(Cl)cc2)cc1` [Compound 69], with 17%.

Still in this assay, the particulars now being: po, 336 h; 20 mpk p.o., rat; read-out: % INH. p.o. (percentage inhibition of pad swelling).
As to `COc1ccc(-n2nc(CCCOC(=O)CC(C)=O)cc2-c2ccc(Cl)cc2)cc1` [Compound 59, 3-(3-Acetoacetoxypropyl)-5-(4-chlorophenyl)-1-(4-methoxyphenyl) pyrazole], the inhibition in vivo at 20 mg/kg came to 48%.

Staying with this assay, now noted: po, 336 h; 25 mpk p.o., rat; read-out: % INH. p.o. (percentage inhibition of pad swelling).
On to `COc1ccc(-n2nc(CCC(=O)N(O)C(C)(C)C)cc2-c2ccc(Cl)cc2)cc1` [Compound 58, 3-[5-(4-chlorophenyl)-1-(4-methoxyphenyl)-3-pyrazolyl]-N-tert-butyl-N-hydroxypropanamide], for which the inhibition in vivo at 25 mg/kg stood at 47%. Turning to `COc1ccc(-n2nc(CCC(=O)Nc3ccc(O)cc3)cc2-c2ccc(Cl)cc2)cc1` [Compound 34], the inhibition in vivo at 25 mg/kg stood at 21%.

Consider `O=C(O)CCc1cc(-c2ccc(Cl)cc2)n(-c2ccccc2)n1` [Compound 17, 3-[5-(4-Chlorophenyl)-1-phenyl-3-pyrazolyl]propionic acid], for which the inhibition in vivo at 25 mg/kg worked out at 50%. On the same count and under the same terms, then `COc1ccc(-n2nc(CCCOC(=O)CCc3cc(-c4ccc(Cl)cc4)n(-c4ccc(OC)cc4)n3)cc2-c2ccc(Cl)cc2)cc1` [Compound 16, 3-[5-(4-Chlorophenyl)-1-(4-methoxyphenyl)-3-pyrazolyl] propyl 3-[5-(4-Chlorophenyl)-1-(4-methoxyphenyl)-3-pyrazolyl] propionate], with 82%.

The same assay, now with this note: po, 336 h; 40 mpk p.o., rat; read-out: % INH. p.o. (percentage inhibition of pad swelling).
As to `COc1ccc(-n2nc(CCC(=O)O)cc2-c2ccc(Cl)cc2)cc1OC` [Compound 74], the inhibition in vivo at 40 mg/kg was 17%.

In the case of `CN(O)C(=O)CCc1cc(-c2ccc(Cl)cc2)n(-c2ccccc2)n1` [Compound 67, 3-[5-(4-Chlorophenyl)-1-phenyl-3-pyrazolyl]-N-hydroxy-N-methyl propanamide], the inhibition in vivo at 40 mg/kg turned out to be 30%. Take `COc1ccc(-n2nc(CCC(=O)N(C)O)c(Br)c2-c2ccc(Cl)cc2)cc1` [Compound 148]: the inhibition in vivo at 40 mg/kg turned out to be 15%. On the same count and under the same terms, under `COc1ccc(-n2nc(CCC(C)O)cc2-c2ccc(Cl)cc2)cc1` (stereo not drawn) [Compound 20, 5-(4-Chlorophenyl)-3-(3-hydroxybutyl)-1-(4-methoxyphenyl) pyrazole] stands 19%.

Still in this assay, the particulars now being: po, 336 h; 50 mpk p.o., rat; read-out: % INH. p.o. (percentage inhibition of pad swelling).
For `OCCCc1cc(-c2ccc(Cl)cc2)n(-c2ccc(Cl)c(Cl)c2)n1` [Compound 8], the inhibition in vivo at 50 mg/kg turned out to be 41%. The same measure, in the same setting: under `OCCCc1cc(-c2ccc(Cl)cc2)n(-c2ccc(F)cc2)n1` [Compound 62] stands 31%; under `CC(=O)OCCCc1cc(-c2ccc(Cl)cc2)n(-c2ccccc2)n1` [Compound 7, 3-(3-Acetoxypropyl)-5-(4-chlorophenyl)-1-phenylpyrazole], 54%. The same measure, in the same setting: then `OCCCc1cc(-c2ccc(Cl)cc2)n(-c2ccccc2)n1` [Compound 1], with 62%. Regarding `OCCCc1cc(-c2ccccc2)n(-c2ccc(Cl)cc2)n1` [Compound 21], the inhibition in vivo at 50 mg/kg was found to be 52%.

For the compound `OCCCc1cc(-c2ccc(Cl)cc2)n(-c2ccc(Cl)cc2)n1` [Compound 4], the inhibition in vivo at 50 mg/kg turned out to be 68%.
